Reference: PMC3563528, “Ultrashort Cationic Lipopeptides and Lipopeptoids Selectively Induce Cytokine Production in Macrophages” (PLoS ONE, 2013)
Where “and” joins values, the source holds several entries; their conditions need not be identical. Equal entries are not always repeated. Marks after values point to notes of the source that are not given here.

Key:
[1] = tested on: human macrophage-like THP-1 cells; assay: Groα production by ELISA in TC supernatants; assay type: cell-based; conditions: 24 h exposure; for Groα induction (in words): concentrations tested up to 100 µM
Procedure: (§1) Prior to testing, human monocytic THP-1 cells were differentiated to plastic-adherent macrophage-like THP-1 cells as previously described. The cells were rested for twenty-four hours, then exposed to the amphiphiles of interest for twenty-four hours. Cell free TC supernatants were monitored for the production of chemokines Groα and IL-8 by ELISA as previously described, [34]. The constitutive background level of chemokine Groα was 6.6±1.8 pg/ml, and that of IL-8 was 1.7±0.16 ng/ml. Encouragingly, the majority of compounds were strong inducers of both IL-8 and Groα and increased chemokine levels above background (Figure 2). […] The three amphiphiles with a LysLysLys peptide sequence and lipid tail at least sixteen carbons in length, 5–7, were especially strong inducers of IL-8, increasing the concentration to 5–8 ng/mL (p<0.05) above control at 10 µM of lipopeptide, and up to 13 ng/mL (p<0.01) above control at 50 µM (Figure 2). These amphiphiles compared favourably to LL-37 (1.3 ng/mL of IL-8 above control at 10 µM), despite their brief peptide sequence. […] All lipopeptides with lipid tails shorter than sixteen carbons were unable to induce either IL-8 or Groα at concentrations up to 100 µM (Figure 2, Figure S1).
(§2) ELISA results were obtained from two biological replicates with two technical replicates each and statistical analyses was performed using Student paired t-test. Error bars in the graphs represents standard error of the mean, and a p-value of less that 0.05 was considered to be statistically significant.

[2] = tested on: human macrophage-like THP-1 cells; assay: TNF-α production by ELISA in TC supernatants; assay type: cell-based; conditions: any concentration tested, at or below 100 µM, 24 h exposure
Procedure: as §2
Supplementary file pone.0054280.s002.tiff: Figure S2 TNF-α production by human macrophage-like THP-1 cells following incubation with amphiphiles 1–21. TC supernatants were monitored for cytokine production via ELISA, and results are reported in pg/mL. All studies were performed in two independent biological replicates with two technical replicates each. (TIFF) Click here for additional data file.

[3] = tested on: human macrophage-like THP-1 cells; assay: IL-1β production by ELISA in TC supernatants; assay type: cell-based; conditions: 24 h exposure
Procedure: Figure 3 IL-1β production. Human macrophage-like THP-1 cells were exposed to amphiphiles 4–11 and 14–21, for twenty-four hours. TC supernatants were monitored for IL-1β by ELISA, with results shown in pg/mL. Studies were performed in two independent biological replicates with two technical replicate each, with the data here presented as the mean plus sem. Inset: Expanded results for the negative control and amphiphiles 4–7 at 5 µM and 10 µM.
as §2

[4] = tested on: human macrophage-like THP-1 cells; assay: IL-8 production by ELISA in TC supernatants; assay type: cell-based; conditions: 24 h exposure; for IL-8 induction (in words): concentrations tested up to 100 µM; for IL-8 production: mean ± sem
Procedure: as §1, §2

[5] = tested on: MRSA ATCC 33592; design: method as in earlier work; conditions: data from previous studies converted into µM; cited from earlier work
[6] = tested on: MRSE (CZ >32) CAN-ICU 61589; design: method as in earlier work; conditions: data from previous studies converted into µM; cited from earlier work
[7] = tested on: S.aureus ATCC 29213; design: method as in earlier work; conditions: data from previous studies converted into µM; cited from earlier work
[8] = tested on: MSSE 81388 CANWARD 2008; design: method as in earlier work; conditions: data from previous studies converted into µM; cited from earlier work
[9] = tested on: Gram positive strains; conditions: in vitro; cited from earlier work
Source text: We have shown that ultrashort lipopeptides and lipopeptoids are able to induce selective cytokine production in human macrophages, despite little structural similarity to any known host defence peptide or CAMP.

[10] = 50 µM amphiphile, two biological replicates with two technical replicates each
[11] = 50 µM amphiphile, mean ± sem, two biological replicates with two technical replicates each

Substance	Groα induction (in words) [1]	IL-8 induction (in words) [4]	Antimicrobial activity (MIC) [5] [µM]	Antimicrobial activity (MIC) [6] [µM]	Antimicrobial activity (MIC) [7]	Antimicrobial activity (MIC) [8] [µM]	further results
C16OH-NHarNHarNHar-NH2 [compound 20]	moderate inducers	moderate inducers					TNF-α induction (in words) [2]: did not induce; IL-1β induction (in words) [3]: did not induce
C20-LysLysLys-NH2 [compound 7]			7.7	7.7	7.7 µM	7.7	Increase of IL-1β concentration ([3]; moving from 10 µM to 50 µM): over forty-fold
C20-HarHarHar-NH2 [compound 11]							IL-8 production [4, 10]: up to 10 ng/mL
C11-LysLysLys-NH2 [compound 4]			>561	281	561^a μM	281	
LLGDFFRKSKEKIGKEFKRIVQRIKDFLRNLVPRTES-OH [LL-37, human cathelicidin LL-37, natural host defence peptide, positive control, reference compound]							Groα production ([1]; 2.5 µM): 800 pg/mL; IL-8 above control ([4]; 10 µM amphiphile, two biological replicates with two technical replicates each): 1.3 ng/mL
C16OH-LysLysLys-NH2 [compound 6]			128	128	128 µM	128	Groα production [1, 11]: 670 pg/mL; IL-8 production [4, 10]: 12.5 ± 0.5 ng/mL
C16OH-LysGlyLys-NH2 [compound 2]		failed to significantly increase IL-8 production					
C11-NLysGlyNLys-NH2 [compound 12]	inactive	inactive					
C16OH-HarHarHar -NH2 [compound 10]							IL-8 production [4, 10]: up to 10 ng/mL
C20-LysGlyLys-NH2 [compound 3]		failed to significantly increase IL-8 production					
C16-LysGlyLys-NH2 [compound 1]							IL-8 above control [4, 10]: 0.2 ng/mL
C16-NLysGlyNLys-NH2 [compound 13]	inactive	inactive					
C16-LysLysLys-NH2 [compound 5]			4.1	<0.25	8.1 µM	<0.25	IL-8 production [4, 10]: 7.7 ± 0.6 ng/mL
C20-NHarNHarNHar-NH2 [compound 21]	strongest inducer	moderate inducer	14	6.9	6.9 µM	6.9	MIC [9]: ≤ 16 µg/mL; Groα production [1, 11]: 996 ± 4 pg/mL and 1000 pg/mL; Groα production ([1]; 100 µM amphiphile): 200 pg/mL; IL-8 production ([4]; 50 and 100 µM amphiphile): 6 ± 0.8 ng/mL
C16OH-NLysNLysNLys-NH2 [compound 16]	moderate inducers	moderate inducers					TNF-α induction (in words) [2]: did not induce; IL-1β induction (in words) [3]: did not induce
